In patent US20080058332A1, “2,4,6-Trisubstituted Pyrimidines as Phosphotidylinositol (Pi) 3-Kinase Inhibitors and Their Use in the Treatment of Cancer” (priority 2004, published 2008) one finds IC50 data, which are given here for 3 molecules.

In one assay the target is T1, p110α Type Ia human PI3K (Homo sapiens, UniProt P42336).
T1 construct: full length DNA of each of the p110α, p110β and p110δ Type Ia human PI3K p110 isoforms; 6-His; made in house
The assay is described as follows: In vitro enzyme assay (AlphaScreen), inhibition of phosphorylation of PI(4,5)P2 by recombinant Type I PI3K. The class given is biochemical. The settings on record: DiC8-PI(4,5)P2 40 μM, ATP 4 μM, read-out: IC50 versus p110α Type Ia human PI3K, Test (a). The text has this:
(a) In Vitro Enzyme Assay
The assay used AlphaScreen technology (Gray et al., Analytical Biochemistry, 2003, 313: 234-245) to determine the ability of test compounds to inhibit phosphorylation by recombinant Type I PI3K enzymes of the lipid PI(4,5)P2.
DNA fragments encoding human PI3K catalytic and regulatory subunits were isolated from cDNA libraries using standard molecular biology and PCR cloning techniques. The selected DNA fragments were used to generate baculovirus expression vectors. In particular, full length DNA of each of the p110α, p110β and p110δ Type Ia human PI3K p110 isoforms (EMBL Accession Nos. HSU79143, S67334, Y10055 for p110α, p110β and p110δ respectively) were sub-cloned into a pDEST10 vector (Invitrogen Limited, Fountain drive, Paisley, UK). The vector is a Gateway-adapted version of Fastbac1 containing a 6-His epitope tag. A truncated form of Type Ib human PI3K p110γ isoform corresponding to amino acid residues 144-1102 (EMBL Accession No. X8336A) and the full length human p85α regulatory subunit (EMBL Accession No. HSP13KIN) were also sub-cloned into pFastBac1 vector containing a 6-His epitope tag. The Type Ia p110 constructs were co-expressed with the p85α regulatory subunit. Following expression in the baculovirus system using standard baculovirus expression techniques, expressed proteins were purified using the His epitope tag using standard purification techniques.
DNA corresponding to amino acids 263 to 380 of human Grp1 PH domain was isolated from a cDNA library using standard molecular biology and PCR cloning techniques. […]
Biotinylated-DiC8-PI(3,4,5)P3 (50 nM; Cell Signals Inc., Catalogue No. 107), recombinant purified GST-Grp1 PH protein (2.5 nM) and AlphaScreen Anti-GST donor and acceptor beads (100 ng; Packard Bioscience Limited, Station Road, Pangbourne, Berkshire, UK, Catalogue No. 6760603M) were added and the assay plates were left for about 5 to 20 hours at ambient temperature in the dark. The resultant signals arising from laser light excitation at 680 nm were read using a Packard AlphaQuest instrument. […]
(In general: In Alpha technology, singlet oxygen from a donor bead excites a nearby acceptor bead.)

The subject of assay [1] is phosphorylation of Serine 473 in Akt. The assay is described as follows: In vitro phospho-Ser473 Akt assay in MDA-MB-468 cells. The settings on record: Homo sapiens, 2 hours incubation, read-out: IC50, Test (b), inhibition of phosphorylation of Serine 473 in Akt. The class given is cell-based. Here is the method: (b) In Vitro phospho-Ser473 Akt Assay
This assay determines the ability of test compounds to inhibit phosphorylation of Serine 473 in Akt as assessed using Acumen Explorer technology (Acumen Bioscience Limited), a plate reader that can be used to rapidly quantitate features of images generated by laser-scanning.
A MDA-MB-468 human breast adenocarcinoma cell line (LGC Promochem, Teddington, Middlesex, UK, Catalogue No. HTB-132) was routinely maintained at 37° C. with 5% CO2 up to a confluency of 70-90% in Dulbecco's modified Eagle's growth medium (DMEM; Invitrogen Limited, Paisley, UK Catalogue No. 41966-029) containing 10% heat-inactivated foetal calf serum (FCS; Sigma, Poole, Dorset, UK, Catalogue No. F0392) and 1% L-glutamine (Gibco, Catalogue No. 25030-024).
For the assay, the cells were detached from the culture flask using ‘Accutase’ (Innovative Cell Technologies Inc., San Diego, Calif., USA; Catalogue No. AT104) using standard tissue culture methods and resuspended in media to give 1.7×10^5 cells per ml. […]
All subsequent aspiration and wash steps were carried out using a Tecan 96 well plate washer (aspiration speed 10 mm/sec). […] An aliquot of PBS (50 μl) was added to each well and the plates were sealed with black plate sealers and the fluorescence signal was detected and analysed. […]

The subject of assay [2] is MDA-MB-468 human breast adenocarcinoma cells. The assay is described as follows: In vitro MDA-MB-468 human breast adenocarcinoma proliferation assay. The class given is cell-based. The settings on record: 48 hours incubation, BrdU incorporation, read-out: IC50, Test (c), inhibition of MDA-MB-468 cell growth. The text has this: (c) In Vitro MDA-MB-468 Human Breast Adenocarcinoma Proliferation Assay
This assay determines the ability of test compounds to inhibit cell proliferation as assessed using Cellomics Arrayscan technology. A MDA-MB-468 human breast adenocarcinoma cell line (LGC Promochem, Catalogue No. HTB-132) was routinely maintained as described in Biological Assay (b) hereinbefore.
For the proliferation assay, the cells were detached from the culture flask using Accutase and seeded into the inner 60 wells of a black Packard 96 well plate at a density of 8000 cells per well in 100 μl of complete growth media. The outer wells contained 100 μl of sterile PBS. The cells were incubated overnight at 37° C. with 5% CO2 to allow them to adhere.
On day 2, the cells were treated with test compounds and incubated for 48 hours at 37° C. with 5% CO2. […]
BrdU incorporation was detected by incubation for 1 hour at ambient temperature with mouse anti-BrdU antibody (50 μl; Caltag, Burlingame, Calif., US; Catalogue No. MD5200) that was diluted 1:40 in PBS containing 1% BSA and 0.05% Tween-20. […] Subsequently, PBS (100 μl) was added to each well and the plates were analysed using a Cellomics array scan to assess total cell number and number of BrdU positive cells.
Fluorescence dose response data obtained with each compound were analysed and the degree of inhibition of MDA-MB-468 cell growth was expressed as an IC50 value.
(In general: Uptake of a labelled nucleoside into DNA is a usual measure of proliferation.)

T1 sequence (P42336 whole entry, canonical isoform): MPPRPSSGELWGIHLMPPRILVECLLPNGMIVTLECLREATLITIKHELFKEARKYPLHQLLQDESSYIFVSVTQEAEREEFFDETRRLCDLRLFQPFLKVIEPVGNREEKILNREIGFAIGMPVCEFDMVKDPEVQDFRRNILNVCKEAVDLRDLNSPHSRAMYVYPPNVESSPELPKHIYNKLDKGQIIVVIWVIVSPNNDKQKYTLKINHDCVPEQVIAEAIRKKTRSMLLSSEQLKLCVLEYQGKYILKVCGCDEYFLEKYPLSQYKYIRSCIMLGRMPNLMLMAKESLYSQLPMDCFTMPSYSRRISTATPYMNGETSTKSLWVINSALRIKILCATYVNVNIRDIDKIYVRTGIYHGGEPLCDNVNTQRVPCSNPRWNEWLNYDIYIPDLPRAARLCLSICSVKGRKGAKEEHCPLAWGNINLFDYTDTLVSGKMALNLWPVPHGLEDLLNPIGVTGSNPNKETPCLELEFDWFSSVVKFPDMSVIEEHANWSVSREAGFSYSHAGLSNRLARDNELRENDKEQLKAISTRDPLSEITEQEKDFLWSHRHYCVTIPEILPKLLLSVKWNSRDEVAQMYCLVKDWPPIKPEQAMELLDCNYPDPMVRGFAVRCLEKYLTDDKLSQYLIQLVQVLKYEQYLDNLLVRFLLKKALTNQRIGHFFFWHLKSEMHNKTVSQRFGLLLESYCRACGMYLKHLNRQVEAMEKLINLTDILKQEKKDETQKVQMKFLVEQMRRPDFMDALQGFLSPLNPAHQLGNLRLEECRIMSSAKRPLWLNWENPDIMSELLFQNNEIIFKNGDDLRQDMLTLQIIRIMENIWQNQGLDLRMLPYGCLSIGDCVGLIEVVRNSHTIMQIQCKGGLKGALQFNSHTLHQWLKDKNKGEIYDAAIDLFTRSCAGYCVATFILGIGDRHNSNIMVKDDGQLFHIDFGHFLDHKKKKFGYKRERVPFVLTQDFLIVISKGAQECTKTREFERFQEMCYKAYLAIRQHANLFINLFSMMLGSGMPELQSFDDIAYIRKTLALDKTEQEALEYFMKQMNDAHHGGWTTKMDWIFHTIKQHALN
T1 sequence (P27986 whole entry partner, canonical isoform): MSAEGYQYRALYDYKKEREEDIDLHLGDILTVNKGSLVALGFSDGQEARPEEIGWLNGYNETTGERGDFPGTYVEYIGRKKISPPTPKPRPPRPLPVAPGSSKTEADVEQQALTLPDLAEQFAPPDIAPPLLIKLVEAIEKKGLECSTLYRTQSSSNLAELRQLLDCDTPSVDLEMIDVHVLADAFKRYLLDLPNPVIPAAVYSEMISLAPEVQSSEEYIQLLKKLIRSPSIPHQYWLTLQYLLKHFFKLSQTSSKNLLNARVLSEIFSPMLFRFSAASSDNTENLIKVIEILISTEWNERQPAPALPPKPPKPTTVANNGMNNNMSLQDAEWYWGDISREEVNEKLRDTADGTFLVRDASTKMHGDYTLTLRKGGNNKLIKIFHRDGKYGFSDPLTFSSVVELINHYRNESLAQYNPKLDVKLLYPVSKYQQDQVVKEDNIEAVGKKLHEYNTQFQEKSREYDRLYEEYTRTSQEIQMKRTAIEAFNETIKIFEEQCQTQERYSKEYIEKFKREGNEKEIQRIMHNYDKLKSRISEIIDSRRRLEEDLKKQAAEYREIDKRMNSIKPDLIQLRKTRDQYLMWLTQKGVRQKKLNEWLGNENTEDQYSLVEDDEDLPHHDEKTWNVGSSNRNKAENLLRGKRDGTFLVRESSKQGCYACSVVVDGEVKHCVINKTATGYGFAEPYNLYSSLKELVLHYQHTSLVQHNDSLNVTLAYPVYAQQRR

Usually IC50 stands for the concentration at which inhibition is half-maximal. As to `O=C(Nc1cccc(-c2nc(-c3cccc(O)c3)cc(N3CCOCC3)n2)c1)C1CCNCC1` [Example 4(3), 4-(3-hydroxyphenyl)-6-morpholino-2-(3-piperidin-4-ylcarbonylaminophenyl)pyrimidine], the 50% inhibitory concentration (IC50) at p110α Type Ia human PI3K is roughly 1000 nM.
For the molecule `N[C@H]1CCC[C@@H](CC(=O)Nc2cccc(-c3nc(-c4cccc(CO)c4)cc(N4CCOCC4)n3)c2)C1` [Example 6(33), 2-(3-{2-[(1R,3S)-3-aminocyclohex-1-yl]acetamido]phenyl}-4-(3-hydroxymethylphenyl)-6-morpholinopyrimidine], the figures for the IC50 (at p110α Type Ia human PI3K; in assay [1]; in assay [2]) were roughly 700 nM, roughly 5100 nM and roughly 10000 nM, respectively.
For `NCc1cccc(C(=O)Nc2cccc(-c3nc(-c4cccc(CO)c4)cc(N4CCOCC4)n3)c2)c1` [Example 6(48), 2-[3-(3-aminomethylbenzamido)phenyl]-4-(3-hydroxymethylphenyl)-6-morpholinopyrimidine] the same measures were roughly 1000 nM, roughly 1800 nM and roughly 5000 nM.
